According to patent US12629374B2, “Antimalarial agents” (Merck Sharp & Dohme LLC, priority 2020, dated 2026):
Where two headings read alike, the source gives them in different places.

System: ring stage parasites
Assay: Parasite growth potency assay, 72 hours, LDH readout
Type: cell-based
Details: parasite growth measured by LDH assay after 72 hours at 37° C., 0.7% rings, 2% haematocrit, read-out: EC50
Procedure, shortened: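 Parasite growth was quantified by LDH assay after a −80 °C freeze-thaw. Before that, compound was incubated for 72 h at 37 °C under humidified gas with ring-stage cultures adjusted to 0.7% parasitemia and 2% haematocrit in serum- and albumax-supplemented RPMI-Hepes.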

CCC1(CC)CC(=O)N(Cc2cccc(C(=O)N[C@@H]3c4ccccc4OC(C)(C)[C@H]3O)c2)C(=N)N1 [Example 1, 3-((4,4-diethyl-2-imino-6-oxotetrahydropyrimidin-1(2H)-yl)methyl)-N-((3S,4R)-3-hydroxy-2,2-dimethylchroman-4-yl)benzamide]
EC50 (72 h): 0.8 nM

COCC[C@H](c1cccc(C(=O)N[C@@H]2c3ccccc3C[C@]2(C)O)c1)N1C(=N)NC(C)(C)CC1=O [Example 166B, N-[(1R,2S)-2-hydroxy-2-methyl-indan-1-yl]-3-[(1R)-1-(2-imino-4,4-dimethyl-6-oxo-hexahydropyrimidin-1-yl)-3-methoxy-propyl]benzamide]
EC50: 17.6 nM

CC[C@@]1(C(F)(F)F)CC(=O)N(Cc2cc(F)cc(C(=O)N[C@H]3CCOc4ccccc43)c2)C(=N)N1 [Example 63, [(4S)-1-[[3-[[(4S)-chroman-4-yl]carbamoyl]-5-fluoro-phenyl]methyl]-4-ethyl-6-oxo-4-(trifluoromethyl)hexahydropyrimidin-2-ylidene]ammonium; 2,2,2-trifluoroacetate]
EC50 (72 h): 80.2 nM

CCC1(CC)CC(=O)N(Cc2cncc(C(=O)NC3CC(C)(C)Oc4ccccc43)c2)C(=N)N1 (centres unmarked) [Example 82, [1-[[5-[(2,2-dimethylchroman-4-yl)carbamoyl]pyridin-1-ium-3-yl]methyl]-4,4-diethyl-6-oxo-hexahydropyrimidin-2-ylidene]ammonium; 2,2,2-trifluoroacetate]
EC50 (trifluoroacetate): 39.4 nM

CCC1(CC)CC(=O)N(C(c2cncnc2)c2cccc(C(=O)NC3CC(C)(C)Oc4ccccc43)c2)C(=N)N1 (single isomer, unassigned) [Example 92C, 3-[(4,4-diethyl-2-imino-6-oxo-hexahydropyrimidin-1-yl)-pyrimidin-5-yl-methyl]-N-(2,2-dimethylchroman-4-yl)benzamide]
EC50: 2.8 nM

COCC[C@H](c1cccc(C(=O)N[C@@H]2c3ccccc3OC(C)(C)[C@@]2(C)O)c1)N1C(=N)NC(C)(C)CC1=O [Example 231, N-[(3S,4R)-3-hydroxy-2,2,3-trimethyl-chroman-4-yl]-3-[(1R)-1-(2-imino-4,4-dimethyl-6-oxo-hexahydropyrimidin-1-yl)-3-methoxy-propyl]benzamide]
EC50 (72 h): 2.9 nM

CCC1(CC)CC(=O)N([C@H](CCOC)c2cccc(C(=O)N[C@@H]3c4ccccc4C4(CC4)[C@H]3O)c2)C(=N)N1 [Example 191A, [4,4-diethyl-1-[(1R)-1-[3-[(2′-hydroxyspiro[cyclopropane-1,3′-indane]-1′-yl)carbamoyl]phenyl]-3-methoxy-propyl]-6-oxo-hexahydropyrimidin-2-ylidene]ammonium; 2,2,2-trifluoroacetate]
EC50 (72 h): 0.7 nM

N=C1N[C@@](CC2CC2)(c2ccccc2)CC(=O)N1[C@H](c1cccnc1)c1cccc(C(=O)N[C@H]2CCOc3ccccc32)c1 [Example 8, [(4R)-1-[[3-[[(4S)-chroman-4-yl]carbamoyl]phenyl]-pyridin-1-ium-3-yl-methyl]-4-(cyclopropylmethyl)-6-oxo-4-phenyl-hexahydropyrimidin-2-ylidene]ammonium; 2,2,2-trifluoroacetate]
EC50 (72 h): 4.2 nM

CCC1(CC)CC(=O)N([C@H](CCOC)c2cccc(C(=O)N[C@@H]3c4ccccc4OC(C)(C)[C@H]3O)c2)C(=N)N1 (stereo in doubt) [Example 128, [4,4-diethyl-1-[1-[3-[(3-hydroxy-2,2-dimethyl-chroman-4-yl)carbamoyl]phenyl]-3-methoxy-propyl]-6-oxo-hexahydropyrimidin-2-ylidene]ammonium; 2,2,2-trifluoroacetate]
EC50 (72 h): 1.1 nM

CCC1(CC)CC(=O)N([C@H](COCCOC)c2cccc(C(=O)N[C@@H]3c4ccccc4OC(C)(C)[C@H]3O)c2)C(=N)N1 [Example 139, [4,4-diethyl-1-[(1S)-1-[3-[[(3S,4R)-3-hydroxy-2,2-dimethyl-chroman-4-yl]carbamoyl]phenyl]-2-(2-methoxyethoxy)ethyl]-6-oxo-hexahydropyrimidin-2-ylidene]ammonium; 2,2,2-trifluoroacetate]
EC50 (72 h): 1.5 nM

CC(C)[C@]1(C)CC(=O)N(Cc2cccc(C(=O)N[C@H]3CCOc4ccccc43)c2)C(=N)N1 [Example 3, [(4S)-1-[[3-[[(4S)-chroman-4-yl]carbamoyl]phenyl]methyl]-4-isopropyl-4-methyl-6-oxo-hexahydropyrimidin-2-ylidene]ammonium; 2,2,2-trifluoroacetate]
EC50 (72 h): 6.2 nM

CCC1(CC)CC(=O)N(Cc2cc(F)cc(C(=O)N[C@@H]3c4ccccc4OC(C)(C)[C@H]3O)c2)C(=N)N1 [Example 141, [4,4-diethyl-1-[[3-fluoro-5-[[(3S,4R)-3-hydroxy-2,2-dimethyl-chroman-4-yl]carbamoyl]phenyl]methyl]-6-oxo-hexahydropyrimidin-2-ylidene]ammonium; 2,2,2-trifluoroacetate]
EC50 (72 h): 0.8 nM

C#CCC[C@H](c1cncc(C(=O)N[C@H]2CC(C)(C)Oc3ccccc32)c1)N1C(=N)N[C@](C)(C(C)C)CC1=O [Example 114A, [(4S)-1-[1-[5-[[(4S)-2,2-dimethylchroman-4-yl]carbamoyl]pyridin-1-ium-3-yl]pent-4-ynyl]-4-isopropyl-4-methyl-6-oxo-hexahydropyrimidin-2-ylidene]ammonium; 2,2,2-trifluoroacetate]
EC50 (72 h): 0.3 nM

CCC1(CC)CC(=O)N([C@H](c2ccccc2)c2cccc(C(=O)N[C@@H]3CCOc4ccccc43)c2)C(=N)N1 [Example 4B, [1-[[3-[[(4R)-chroman-4-yl]carbamoyl]phenyl]-phenyl-methyl]-4,4-diethyl-6-oxo-hexahydropyrimidin-2-ylidene]ammonium; 2,2,2-trifluoroacetate]
EC50 (72 h): 35.4 nM

CCC1(CC)CC(=O)N([C@H](CCOC)c2cccc(C(=O)N[C@@H]3c4ccccc4C[C@@H]3O)c2)C(=N)N1 [Example 202, [4,4-diethyl-1-[(1R)-1-[3-[[(1R,2S)-2-hydroxyindan-1-yl]carbamoyl]phenyl]-3-methoxy-propyl]-6-oxo-hexahydropyrimidin-2-ylidene]ammonium; 2,2,2-trifluoroacetate]
EC50 (72 h): 5.3 nM

CCC1(CC)CC(=O)N([C@H](CCOC)c2cccc(C(=O)N[C@@H]3c4ccccc4CC3(O)C(F)(F)F)c2)C(=N)N1 (single isomer, unassigned) [Example 204A]
EC50: 21 nM

CCC1(CC)CC(=O)N(Cc2ccnc(C(=O)N[C@H]3CCOc4ccccc43)c2)C(=N)N1 [Example 22, [1-[[2-[[(4S)-chroman-4-yl]carbamoyl]-4-pyridyl]methyl]-4,4-diethyl-6-oxo-hexahydropyrimidin-2-ylidene]ammonium; 2,2,2-trifluoroacetate]
EC50 (72 h): 17.2 nM

CCC1(CC)CC(=O)N(Cc2cccc(C(=O)NC3CC(C)(C)Oc4ccccc43)c2)C(=N)N1 (single isomer, unassigned) [Example 51B, [1-[[3-[(2,2-dimethylchroman-4-yl)carbamoyl]phenyl]methyl]-4,4-diethyl-6-oxo-hexahydropyrimidin-2-ylidene]ammonium; 2,2,2-trifluoroacetate]
EC50 (trifluoroacetate): 0.5 nM

CCC1(CC)CC(=O)N(C(CC(OC)C(F)(F)F)c2cccc(C(=O)N[C@@H]3c4ccccc4C[C@H]3O)c2)C(=N)N1 (single isomer, unassigned) [Example 238B]
EC50: 67.5 nM

CCC1(COC)CC(=O)N(Cc2cccc(C(=O)N[C@H]3CCOc4ccccc43)c2)C(=N)N1 (stereo partly drawn) [Example 86, [1-[[3-[[(4S)-chroman-4-yl]carbamoyl]phenyl]methyl]-4-ethyl-4-(methoxymethyl)-6-oxo-hexahydropyrimidin-2-ylidene]ammonium; 2,2,2-trifluoroacetate]
EC50 (72 h): 49.6 nM

CCC1(CC)CC(=O)N([C@H](CCOCCOCCOCCN=[N+]=[N-])c2cccc(C(=O)N[C@H]3CC(C)(C)Oc4ccccc43)c2)C(=N)N1 [Example 201, [1-[(1R)-3-[2-[2-(2-azidoethoxy)ethoxy]ethoxy]-1-[3-[[(4S)-2,2-dimethylchroman-4-yl]carbamoyl]phenyl]propyl]-4,4-diethyl-6-oxo-hexahydropyrimidin-2-ylidene]ammonium; 2,2,2-trifluoroacetate]
EC50 (72 h): 1.2 nM

CCC1(COC)CC(=O)N(Cc2cccc(C(=O)N[C@H]3CC(C)(C)Oc4ccccc43)c2)C(=N)N1 (stereo partly drawn) [Example 98A, [1-[[3-[[(4S)-2,2-dimethylchroman-4-yl]carbamoyl]phenyl]methyl]-4-ethyl-4-(methoxymethyl)-6-oxo-hexahydropyrimidin-2-ylidene]ammonium; 2,2,2-trifluoroacetate]
EC50 (72 h): 15.5 nM

CCC1(CC)CC(=O)N([C@H](CCOC)c2cccc(C(=O)N[C@@H]3c4ccccc4OC[C@@H]3O)c2)C(=N)N1 [Example 152A, [4,4-diethyl-1-[(1R)-1-[3-[[(3R,4R)-3-hydroxychroman-4-yl]carbamoyl]phenyl]-3-methoxy-propyl]-6-oxo-hexahydropyrimidin-2-ylidene]ammonium; 2,2,2-trifluoroacetate]
EC50 (72 h): 8.8 nM

CCC[C@H](c1cccc(C(=O)N[C@@H]2c3ccccc3C[C@H]2O)c1)N1C(=N)N[C@](CC2CC2)(c2ccccc2)CC1=O [Example 69, [(4S)-4-(cyclopropylmethyl)-1-[(1R)-1-[3-[[(1R,2R)-2-hydroxyindan-1-yl]carbamoyl]phenyl]butyl]-6-oxo-4-phenyl-hexahydropyrimidin-2-ylidene]ammonium; 2,2,2-trifluoroacetate]
EC50 (72 h): 29.3 nM

C#CCC[C@@H](c1cccc(C(=O)NC2CC(C)(C)Oc3ccccc32)c1)N1C(=N)NC(CC)(CC)CC1=O (stereo partly drawn) [Example 214A, 3-[(1S)-1-(4,4-diethyl-2-imino-6-oxo-hexahydropyrimidin-1-yl)pent-4-ynyl]-N-(2,2-dimethylchroman-4-yl)benzamide]
EC50 (72 h): 26.3 nM

CCC1(CC)CC(=O)N([C@@H](CCOC)c2cccc(C(=O)N[C@H]3C[C@H](C(F)(F)F)Oc4ccccc43)c2)C(=N)N1 [Example 132A, [[(2R,4S)-2-(trifluoromethyl)chroman-4-yl]carbamoyl]phenyl]propyl]-6-oxo-hexahydropyrimidin-2-ylidene]ammonium; 2,2,2-trifluoroacetate]
EC50 (72 h): 59 nM
